Broadly, the IC50 is the midpoint of a concentration-inhibition curve.

Data set [1] has as its system Kv channels in DRG neurons. In words: activation kinetics of Kv currents in DRG neurons. It is filed as cell-based, mouse. To be noted: in presence of 10 µM; control −6.43 ± 1.21 mV. The text has this:
(§1) The currents in mouse DRG neurons can be separated into IA and IK. They could be distinguished by applying voltage steps from a holding potential of −50 mV, at which IA was almost completely inactivated, while IK remained unchanged. Thereby, IA could be separated by subtracting IK from the total potassium currents. According to these electrophysiological characteristics, the effects of (−)-NRG-DM on potassium currents were examined (Figure 5A). […] Additionally, the effects of (−)-NRG-DM on the kinetics of the Kv channels were further characterized. The Kv currents were elicited by multiple 1500 ms depolarization pulses ranging from −80 mV to +90 mV in 10 mV increments from a holding potential of −80 mV. […] The values of V1/2 in the absence and presence of 10 µM (−)-NRG-DM were −6.43 ± 1.21 mV and −8.08 ± 2.02 mV, respectively (Figure 5D).

The test system of data set [2] is delayed rectifier potassium currents (IK) in DRG neurons. In words: whole-cell patch-clamp, delayed rectifier potassium currents in DRG neurons. Type of data set: cell-based, mouse.
Text: as §1
(§2) Dorsal root ganglia (DRG) were dissected from male C57BL/6 mice aged 4~6 weeks. The ganglia were first cut into small pieces and then digested at 37 °C for 20 min in DMEM containing 1 mg/mL collagenase type I and 0.25 mg/mL trypsin (Sigma-Aldrich). Subsequently, the digested small fragments were terminated and resuspended with DMEM/F12 growth medium (Gibco) supplemented with 10% fetal bovine serum (FBS) (Gibco). […]

In data set [3] the test system is transient outward potassium currents (IA) in DRG neurons. In words: whole-cell patch-clamp, transient outward potassium currents in DRG neurons. It is filed as cell-based. The conditions noted are these: Mus musculus, DRG neuron; n = 5.
Text: as §1, §2
On the technique in general: In patch-clamp work, channel activity is measured electrically.

Data set [4] in a line: pharmacokinetic study, plasma concentration after intraperitoneal administration. It is filed as in vivo, ICR mice. Here is the method: The pharmacokinetic study was performed in male ICR mice weighted 20 ± 2 g. The mice were fasted for 12 h before intraperitoneal administration of (−)-NRG-DM at 50 mg/kg. Blood samples (0.5 mL) were collected at 0.5, 1, and 1.5 h from the abdominal aorta into the heparinized tubes after drug administration. The plasma was separated by centrifugation (11,000 rpm for 5 min) and then stored at −80 °C until analyzed. Plasma samples (20 μL) were treated with the addition of the internal standard solution (20 μL) and acetonitrile (300 μL), then vortexed for 15 min (1000 rpm, RT), and centrifuged of 15 min (3700 rpm, 4 °C). The supernatants were collected for analysis using LC−MS/MS. The data were processed using Analyst software version 1.6.3 (Sciex, ON, Canada).

In data set [5] the test system is formalin-induced inflammatory pain. Description: formalin-induced mouse inflammatory pain model. Type of data set: in vivo, ICR mice. To be noted: phase I and phase II. Here is the method: The formalin test is a classical inflammatory pain model which represents somatic pain. Intraplantar injection of formalin results in a typical two-stage nociceptive behavior, which is characterized by licking and biting of the injected paw. The first phase (0~10 min) mainly reflects nociceptive pain, while the second phase (11~60 min) represents the inflammatory responses. In our study, we tested the effects of (−)-NRG-DM on formalin-induced inflammatory pain in mice. (−)-NRG-DM at 30 mg/kg and 50 mg/kg body weight were individually intraperitoneally administrated 30 min before injection of 1% formalin solution.
Adult male ICR mice weighing 20 ± 2 g were randomly divided into 3 groups (n = 10 for each group) and acclimatized in a transparent observation chamber for at least 30 min before the experiment. Mice were intraperitoneally administrated with vehicle or (−)-NRG-DM (30 or 50 mg/kg) 30 min prior to formalin injection. Then, 1% formalin solution (20 μL per site) was subcutaneously injected into the plantar of the left hind paw to induce acute inflammatory pain. Immediately, mice were put back into the observation chambers. Nociception caused by formalin was assessed by scoring painful behaviors and licking time over a period of 60 min. […]

The target in data set [6] is Nav1.8 channel (Homo sapiens, UniProt Q9Y5Y9). In words: whole-cell patch-clamp, Nav1.8 stably expressed in HEK293 cells.
Data set [7] has as its system TTX-resistant (TTX-R) currents in small-diameter DRG neurons. Type of data set: cell-based, mouse. The conditions noted are these: 300 nM TTX.
Data set [8] addresses Nav1.7 channel (Homo sapiens, UniProt Q15858). In words: whole-cell patch-clamp, Nav1.7 stably expressed in HEK293 cells.
Data set [9] relates to mustard oil-induced colorectal pain. Description: mustard oil-induced mouse colorectal pain model. It is filed as in vivo, C57BL/6 mice. To be noted: 30 min observation. The procedure: The dose-dependent relief of somatic pain in the formalin model prompted us to ask whether it could attenuate the visceral pain. Thereby, we constructed the mustard oil-induced mouse colorectal pain model as previously described. […] As those observed in intraplantar formalin-induced pain, (−)-NRG-DM dose dependently relieved intracolonic mustard oil-caused writhing (Figure 3A). After intraperitoneal application of 30 mg/kg and 50 mg/kg (−)-NRG-DM, the writhing number reduced by approximately 60% and 80%, respectively (Figure 3B).
Male C57BL/6 mice, weighing 23~25 g, were randomly assigned into 3 groups (n = 10 for each group) and placed in a transparent observation chamber for at least 20 min prior to the experiment. Mice were intraperitoneally administrated with vehicle or (−)-NRG-DM (30 or 50 mg/kg) 30 min before the injection of diluted mustard. Subsequently, 50 µL of diluted mustard oil solution (0.75% in 70% ethanol) was intracolonically administrated and the number of pain responses was counted for 30 min. In the present study, postures defined as pain-related behaviors were in agreement with previous descriptions: (1) licking of the abdomen, (2) stretching the abdomen, (3) squashing of lower abdomen against the floor, (4) abdominal wall retractions.

Chain of Nav1.8 channel (Q9Y5Y9 whole entry): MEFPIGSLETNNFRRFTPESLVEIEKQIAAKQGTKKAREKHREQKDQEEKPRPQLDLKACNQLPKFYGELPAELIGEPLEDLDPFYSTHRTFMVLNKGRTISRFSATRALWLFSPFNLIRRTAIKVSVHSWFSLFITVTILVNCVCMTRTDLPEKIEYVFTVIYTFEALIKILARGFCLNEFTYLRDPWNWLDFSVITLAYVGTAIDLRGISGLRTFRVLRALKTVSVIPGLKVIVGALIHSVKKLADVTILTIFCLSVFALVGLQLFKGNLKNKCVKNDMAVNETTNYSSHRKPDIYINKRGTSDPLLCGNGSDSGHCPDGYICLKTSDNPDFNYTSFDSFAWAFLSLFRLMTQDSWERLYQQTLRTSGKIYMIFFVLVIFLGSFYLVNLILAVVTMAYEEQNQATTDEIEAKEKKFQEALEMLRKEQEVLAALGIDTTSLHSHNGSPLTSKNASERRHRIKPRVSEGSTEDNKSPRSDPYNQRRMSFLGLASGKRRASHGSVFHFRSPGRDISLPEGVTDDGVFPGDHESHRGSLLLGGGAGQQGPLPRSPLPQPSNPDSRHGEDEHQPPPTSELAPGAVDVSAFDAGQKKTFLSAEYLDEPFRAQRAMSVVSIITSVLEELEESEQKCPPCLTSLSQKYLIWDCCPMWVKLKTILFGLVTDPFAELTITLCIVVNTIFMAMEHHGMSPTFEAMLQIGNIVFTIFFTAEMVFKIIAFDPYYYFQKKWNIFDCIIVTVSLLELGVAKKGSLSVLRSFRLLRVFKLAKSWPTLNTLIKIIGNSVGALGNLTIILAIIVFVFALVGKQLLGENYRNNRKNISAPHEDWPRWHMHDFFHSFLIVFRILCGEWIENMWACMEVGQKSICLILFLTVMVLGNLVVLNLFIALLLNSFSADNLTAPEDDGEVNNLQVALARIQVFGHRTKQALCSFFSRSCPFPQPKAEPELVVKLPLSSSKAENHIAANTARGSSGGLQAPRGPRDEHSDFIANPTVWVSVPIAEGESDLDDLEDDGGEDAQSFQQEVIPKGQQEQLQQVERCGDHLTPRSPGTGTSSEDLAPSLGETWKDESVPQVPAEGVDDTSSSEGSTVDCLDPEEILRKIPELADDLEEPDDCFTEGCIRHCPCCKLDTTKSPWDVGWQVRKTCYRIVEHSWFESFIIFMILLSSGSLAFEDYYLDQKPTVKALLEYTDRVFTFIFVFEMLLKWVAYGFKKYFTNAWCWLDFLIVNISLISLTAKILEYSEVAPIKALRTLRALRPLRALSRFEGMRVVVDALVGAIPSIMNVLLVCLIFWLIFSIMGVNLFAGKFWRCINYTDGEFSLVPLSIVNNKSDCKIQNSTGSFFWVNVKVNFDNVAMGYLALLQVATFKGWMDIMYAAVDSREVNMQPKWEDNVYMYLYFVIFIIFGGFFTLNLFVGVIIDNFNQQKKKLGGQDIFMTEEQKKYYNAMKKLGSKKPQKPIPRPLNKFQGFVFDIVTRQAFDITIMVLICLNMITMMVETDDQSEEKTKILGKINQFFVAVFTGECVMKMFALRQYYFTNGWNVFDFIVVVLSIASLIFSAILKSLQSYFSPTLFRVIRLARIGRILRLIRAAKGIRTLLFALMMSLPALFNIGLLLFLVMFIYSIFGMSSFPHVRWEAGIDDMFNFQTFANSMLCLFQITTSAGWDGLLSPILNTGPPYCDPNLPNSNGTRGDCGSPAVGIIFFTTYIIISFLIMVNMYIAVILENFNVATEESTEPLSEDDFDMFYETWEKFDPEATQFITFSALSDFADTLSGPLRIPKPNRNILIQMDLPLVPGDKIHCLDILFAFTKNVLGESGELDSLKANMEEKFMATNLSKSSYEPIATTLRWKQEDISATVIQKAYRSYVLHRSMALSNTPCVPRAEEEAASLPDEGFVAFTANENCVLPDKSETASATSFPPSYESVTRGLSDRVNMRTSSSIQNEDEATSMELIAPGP
Chain of Nav1.7 channel (Q15858 whole entry): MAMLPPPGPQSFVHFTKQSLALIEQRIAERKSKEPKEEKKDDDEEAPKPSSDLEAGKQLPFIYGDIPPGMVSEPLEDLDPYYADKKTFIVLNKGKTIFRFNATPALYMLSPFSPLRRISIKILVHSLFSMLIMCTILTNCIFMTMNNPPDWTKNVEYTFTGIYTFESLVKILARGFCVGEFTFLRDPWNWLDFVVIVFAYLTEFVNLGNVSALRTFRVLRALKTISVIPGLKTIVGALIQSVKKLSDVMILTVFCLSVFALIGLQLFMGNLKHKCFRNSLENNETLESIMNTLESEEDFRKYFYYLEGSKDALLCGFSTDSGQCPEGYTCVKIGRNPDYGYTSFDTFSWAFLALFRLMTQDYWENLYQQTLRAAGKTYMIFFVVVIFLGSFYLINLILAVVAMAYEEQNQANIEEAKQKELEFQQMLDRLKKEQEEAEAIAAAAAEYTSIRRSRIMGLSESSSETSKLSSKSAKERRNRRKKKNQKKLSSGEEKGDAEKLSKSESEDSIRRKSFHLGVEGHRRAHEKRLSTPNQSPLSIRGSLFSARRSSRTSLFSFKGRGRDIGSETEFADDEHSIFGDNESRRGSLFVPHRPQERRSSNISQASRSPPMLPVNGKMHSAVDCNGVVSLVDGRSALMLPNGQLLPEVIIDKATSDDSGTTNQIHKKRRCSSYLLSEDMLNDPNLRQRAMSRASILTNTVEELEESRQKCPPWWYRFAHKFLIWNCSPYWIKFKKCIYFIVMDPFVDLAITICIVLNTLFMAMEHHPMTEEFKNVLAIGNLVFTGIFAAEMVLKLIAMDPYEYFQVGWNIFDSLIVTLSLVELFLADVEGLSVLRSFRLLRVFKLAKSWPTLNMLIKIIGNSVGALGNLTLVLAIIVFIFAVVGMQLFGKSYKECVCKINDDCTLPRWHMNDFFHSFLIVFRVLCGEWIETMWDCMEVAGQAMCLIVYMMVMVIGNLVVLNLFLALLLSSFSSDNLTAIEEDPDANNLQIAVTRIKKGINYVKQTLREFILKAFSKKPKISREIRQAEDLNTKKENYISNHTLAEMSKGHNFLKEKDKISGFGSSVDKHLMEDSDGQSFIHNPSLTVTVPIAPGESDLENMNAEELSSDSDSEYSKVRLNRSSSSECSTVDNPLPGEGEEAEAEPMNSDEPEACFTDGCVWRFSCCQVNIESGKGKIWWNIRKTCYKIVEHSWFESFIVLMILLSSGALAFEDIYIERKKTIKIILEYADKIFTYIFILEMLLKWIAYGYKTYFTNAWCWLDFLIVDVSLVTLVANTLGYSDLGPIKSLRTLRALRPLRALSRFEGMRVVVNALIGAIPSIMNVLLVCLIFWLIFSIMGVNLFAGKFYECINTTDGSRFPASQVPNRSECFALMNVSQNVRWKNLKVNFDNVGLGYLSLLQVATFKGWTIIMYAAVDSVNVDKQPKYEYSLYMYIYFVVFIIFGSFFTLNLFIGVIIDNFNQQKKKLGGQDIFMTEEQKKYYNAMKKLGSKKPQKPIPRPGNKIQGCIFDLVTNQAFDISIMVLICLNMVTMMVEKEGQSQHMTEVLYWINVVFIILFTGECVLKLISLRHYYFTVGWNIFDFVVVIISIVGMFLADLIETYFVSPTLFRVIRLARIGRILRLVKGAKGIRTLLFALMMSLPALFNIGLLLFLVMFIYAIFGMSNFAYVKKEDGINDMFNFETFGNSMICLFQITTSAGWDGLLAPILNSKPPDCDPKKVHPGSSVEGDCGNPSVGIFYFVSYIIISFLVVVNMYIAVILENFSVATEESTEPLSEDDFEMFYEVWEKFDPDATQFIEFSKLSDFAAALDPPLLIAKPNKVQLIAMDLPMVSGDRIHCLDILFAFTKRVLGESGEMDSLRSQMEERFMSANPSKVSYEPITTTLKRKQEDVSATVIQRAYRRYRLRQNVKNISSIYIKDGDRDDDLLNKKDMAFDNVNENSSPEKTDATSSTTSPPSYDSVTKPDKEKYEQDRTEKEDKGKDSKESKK

With `COc1ccc([C@H]2CC(=O)c3c(O)cc(OC)cc3O2)cc1` [(−)-NRG-DM, (−)-naringenin 4′,7-dimethyl ether], the “V1/2 of activation of Kv currents” value in [1] is −8.08 ± 2.02 mV. The IC50 in [2] (Mus musculus, DRG neuron, n = 5) worked out at 5.1 ± 0.04 µM; in data set [3] it was 119.9 ± 0.03 µM. In addition, the “reduction in IK currents” value in data set [2] (at plasma concentration (around 7 µM)) was “around 58%”. Besides, the plasma concentration result in [4] (0.5~1.5 h after i.p. injection at 50 mg/kg) is “around 7 µM”. The compound further had a concentration at 0.5 h in data set [4] (male, ICR, mouse, ip, plasma, 50 mg/kg i.p., 0.5 h, mean ± SEM) of 2290 ± 183 ng/mL. In [4] (male, ICR, mouse, ip, plasma, 50 mg/kg i.p., 1 h, mean ± SEM), this compound came in with a concentration at 1 h of 2220 ± 1250 ng/mL. The concentration at 1.5 h in [4] (male, ICR, mouse, ip, plasma, 50 mg/kg i.p., 1.5 h, mean ± SEM) was 717 ± 222 ng/mL. Besides, the “Concentration (μM/L)” value in data set [4] (plasma, 50 mg/kg i.p., 0.5 h, mean ± SEM) was 7.64 ± 0.61 µM; in data set [4] (plasma, 50 mg/kg i.p., 1 h, mean ± SEM), 7.39 ± 4.17 µM; in data set [4] (plasma, 50 mg/kg i.p., 1.5 h, mean ± SEM), 2.39 ± 0.74 µM. The “painful behaviors (licking time and pain score)” value in [5] (30 mg/kg i.p. 30 min before 1% formalin) is given as “only had a significant influence in phase I”. For the same compound, the “painful behaviors (licking time and overall pain score)” value in data set [5] (50 mg/kg i.p. 30 min before 1% formalin) is “significantly attenuated painful behaviors”. The inhibitory ratio in [6] (30 µM) was 44 ± 3%; in data set [8] (30 µM), 39 ± 5%. The IDrug/IControl worked out at 0.56 ± 0.03 in [6] (30 μM, HEK293) and 0.61 ± 0.05 in data set [8] (30 μM, HEK293). In addition, in data set [6] (30 µM, control −48.58 ± 0.67 mV), the “V1/2 of steady-state inactivation of Nav1.8” value is −53.37 ± 0.70 mV. Besides, the “V1/2 of activation, TTX-R currents” value in data set [7] (30 μM, control −16.82 ± 0.72 mV) was −20.14 ± 0.87 mV. The “V1/2 of steady-state inactivation, TTX-R currents” value in data set [7] (30 µM, control −39.43 ± 0.66 mV) is reported as −49.99 ± 0.67 mV. Further, the “selectivity Nav1.7 vs Nav1.8” value in [8] (30 μM, no significant difference between Nav1.7 and Nav1.8) was “non-selective Nav channel inhibitor”. Also, the “reduction of writhing number” value is reported as “approximately 60%” in [9] (30 mg/kg i.p.) and about 80% in data set [9] (50 mg/kg i.p.).

The record behind these values is publication PMC8911579, “(−)-Naringenin 4′,7-dimethyl Ether Isolated from Nardostachys jatamansi Relieves Pain through Inhibition of Multiple Channels” (Molecules, 2022).
